The text below walks through data of ChEMBL document CHEMBL4390652, “Design, biological evaluation and X-ray crystallography of nanomolar multifunctional ligands targeting simultaneously acetylcholinesterase and glycogen synthase kinase-3” (Eur J Med Chem, 2019).

For assay [1], the target named is Phosphatidylinositol 5-phosphate 4-kinase type-2 gamma (Homo sapiens) (UniProt Q8TBX8). In words: Binding affinity to wild-type human partial length PIP5K2C (M1 to A421 residues) expressed in mammalian expression system assessed as residual binding level at 10 uM by Kinomescan method relative to control.
Phosphatidylinositol 5-phosphate 4-kinase type-2 gamma (Homo sapiens), sequence (Q8TBX8 whole entry, the tested form may be a part): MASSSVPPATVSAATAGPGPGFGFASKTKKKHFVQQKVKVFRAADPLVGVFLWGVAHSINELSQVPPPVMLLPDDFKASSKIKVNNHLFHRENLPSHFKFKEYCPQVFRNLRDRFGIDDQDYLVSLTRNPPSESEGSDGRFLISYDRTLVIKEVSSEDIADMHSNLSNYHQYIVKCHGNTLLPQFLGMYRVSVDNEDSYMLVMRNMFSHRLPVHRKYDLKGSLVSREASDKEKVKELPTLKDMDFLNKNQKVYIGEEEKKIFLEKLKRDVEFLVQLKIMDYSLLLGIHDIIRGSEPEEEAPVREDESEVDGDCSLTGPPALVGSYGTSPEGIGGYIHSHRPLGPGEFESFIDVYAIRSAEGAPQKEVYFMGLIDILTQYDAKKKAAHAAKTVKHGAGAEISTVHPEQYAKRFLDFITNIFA
In assay [2] the target is Serine/threonine-protein kinase D3 (Homo sapiens) (UniProt O94806). In words: Binding affinity to wild-type human partial length PRKD3 (S543 to E863 residues) expressed in bacterial expression system assessed as residual binding level at 10 uM by Kinomescan method relative to control.
For assay [3], the system named is Tyrosine-protein kinase ABL1 (Homo sapiens), P00519 [T315I]. In words: Binding affinity to human phosphorylated ABL1 T315I mutant (S229 to K512 residues) expressed in mammalian expression system assessed as residual binding level at 10 uM by Kinomescan method relative to control.
Assay [4] addresses Serine/threonine-protein kinase Nek2 (Homo sapiens) (UniProt P51955). The experiment in a line: Binding affinity to wild-type human partial length NEK2 (M1 to K309 residues) expressed in bacterial expression system assessed as residual binding level at 10 uM by Kinomescan method relative to control.
In assay [5] the target is Dual specificity protein kinase CLK2 (Homo sapiens) (UniProt P49760). The experiment in a line: Binding affinity to wild-type human partial length CLK2 (D144 to R498 residues) expressed in bacterial expression system assessed as residual binding level at 10 uM by Kinomescan method relative to control.
The target in assay [6] is Tyrosine-protein kinase TXK (Homo sapiens) (UniProt P42681). The experiment in a line: Binding affinity to wild-type human partial length TXK (L238 to W527 residues) expressed in bacterial expression system assessed as residual binding level at 10 uM by Kinomescan method relative to control.
Tyrosine-protein kinase TXK (Homo sapiens), sequence (P42681 whole entry, the tested form may be a part): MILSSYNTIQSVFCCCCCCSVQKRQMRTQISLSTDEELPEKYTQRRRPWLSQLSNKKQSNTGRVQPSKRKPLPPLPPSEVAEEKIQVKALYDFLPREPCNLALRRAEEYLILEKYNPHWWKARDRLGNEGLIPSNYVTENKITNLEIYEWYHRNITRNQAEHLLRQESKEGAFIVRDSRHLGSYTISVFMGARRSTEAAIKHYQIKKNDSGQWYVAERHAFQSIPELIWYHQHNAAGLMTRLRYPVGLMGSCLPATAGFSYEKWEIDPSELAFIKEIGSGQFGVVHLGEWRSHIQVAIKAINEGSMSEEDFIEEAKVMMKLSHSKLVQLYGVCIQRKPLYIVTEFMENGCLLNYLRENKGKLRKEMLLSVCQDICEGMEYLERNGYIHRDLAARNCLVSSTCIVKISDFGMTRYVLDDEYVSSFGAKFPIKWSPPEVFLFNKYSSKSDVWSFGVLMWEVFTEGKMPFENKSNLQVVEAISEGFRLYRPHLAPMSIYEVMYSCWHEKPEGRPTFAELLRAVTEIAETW
Assay [7] deals with Ribosomal protein S6 kinase alpha-6 (Homo sapiens) (UniProt Q9UK32). In words: Binding affinity to wild-type human partial length N-terminal RSK4 kinase domain 1 (M1 to E397 residues) expressed in mammalian expression system assessed as residual binding level at 10 uM by Kinomescan method relative to control.
Ribosomal protein S6 kinase alpha-6 (Homo sapiens), sequence (Q9UK32 whole entry, the tested form may be a part): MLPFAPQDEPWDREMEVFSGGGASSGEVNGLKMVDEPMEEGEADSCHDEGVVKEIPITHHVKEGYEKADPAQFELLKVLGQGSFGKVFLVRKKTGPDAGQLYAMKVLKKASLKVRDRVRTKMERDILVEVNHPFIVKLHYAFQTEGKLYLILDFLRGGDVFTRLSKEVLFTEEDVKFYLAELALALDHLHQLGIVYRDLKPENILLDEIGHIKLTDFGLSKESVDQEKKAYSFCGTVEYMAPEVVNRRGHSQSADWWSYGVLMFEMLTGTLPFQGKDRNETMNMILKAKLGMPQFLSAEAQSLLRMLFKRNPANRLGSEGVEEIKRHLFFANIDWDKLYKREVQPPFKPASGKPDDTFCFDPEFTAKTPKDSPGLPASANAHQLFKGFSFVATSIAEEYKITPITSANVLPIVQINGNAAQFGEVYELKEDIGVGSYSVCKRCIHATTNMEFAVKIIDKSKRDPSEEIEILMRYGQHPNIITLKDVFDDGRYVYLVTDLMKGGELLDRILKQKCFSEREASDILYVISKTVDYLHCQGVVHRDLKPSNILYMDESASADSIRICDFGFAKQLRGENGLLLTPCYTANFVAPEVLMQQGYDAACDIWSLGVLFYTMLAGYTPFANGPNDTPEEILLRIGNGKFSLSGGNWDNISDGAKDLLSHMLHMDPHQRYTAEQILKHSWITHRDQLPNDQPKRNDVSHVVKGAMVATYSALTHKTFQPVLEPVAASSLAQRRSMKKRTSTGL
The target of assay [8] is Insulin receptor (Homo sapiens) (UniProt P06213). The experiment in a line: Binding affinity to wild-type human partial length INSR (P997 to E1318 residues) expressed in mammalian expression system assessed as residual binding level at 10 uM by Kinomescan method relative to control.
The target in assay [9] is Serine/threonine-protein kinase Nek7 (Homo sapiens) (UniProt Q8TDX7). In words: Binding affinity to wild-type human full length NEK7 (M1 to S302 residues) expressed in bacterial expression system assessed as residual binding level at 10 uM by Kinomescan method relative to control.
Serine/threonine-protein kinase Nek7 (Homo sapiens), sequence (Q8TDX7 whole entry, looked up, the tested form may be a part): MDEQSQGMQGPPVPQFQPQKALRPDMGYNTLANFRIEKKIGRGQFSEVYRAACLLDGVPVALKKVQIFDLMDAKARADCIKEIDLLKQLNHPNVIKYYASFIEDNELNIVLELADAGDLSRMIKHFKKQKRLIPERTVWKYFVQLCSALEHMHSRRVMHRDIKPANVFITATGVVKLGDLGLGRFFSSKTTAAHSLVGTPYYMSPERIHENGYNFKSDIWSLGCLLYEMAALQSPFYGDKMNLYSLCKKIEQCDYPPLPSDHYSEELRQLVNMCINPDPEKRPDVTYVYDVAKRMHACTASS
Assay [10] concerns the target Ribosomal protein S6 kinase alpha-2 (Homo sapiens) (UniProt Q15349). In words: Binding affinity to wild-type human partial length N-terminal RSK3 kinase domain 1 (M1 to Q385 residues) expressed in bacterial expression system assessed as residual binding level at 10 uM by Kinomescan method relative to control.
The target of assay [11] is Protein kinase C epsilon type (Homo sapiens) (UniProt Q02156). The experiment in a line: Binding affinity to wild-type human partial length PRKCE (A378 to P737 residues) expressed in mammalian expression system assessed as residual binding level at 10 uM by Kinomescan method relative to control.
Assay [12] addresses Myotonin-protein kinase (Homo sapiens) (UniProt Q09013). The experiment in a line: Binding affinity to wild-type human partial length DMPK (V47 to V415 residues) expressed in bacterial expression system assessed as residual binding level at 10 uM by Kinomescan method relative to control.
Assay [13] deals with Phosphatidylinositol 4,5-bisphosphate 3-kinase catalytic subunit alpha isoform (Homo sapiens), P42336 [H1047Y]. In words: Binding affinity to human partial length PIK3CA H1047Y mutant (R108 to N1068 residues) expressed in mammalian expression system assessed as residual binding level at 10 uM by Kinomescan method relative to control.
The target in assay [14] is Serine/threonine-protein kinase 36 (Homo sapiens) (UniProt Q9NRP7). In words: Binding affinity to wild-type human partial length STK36 (M1 to T271 residues) expressed in bacterial expression system assessed as residual binding level at 10 uM by Kinomescan method relative to control.
Serine/threonine-protein kinase 36 (Homo sapiens), sequence (Q9NRP7 whole entry, the tested form may be a part): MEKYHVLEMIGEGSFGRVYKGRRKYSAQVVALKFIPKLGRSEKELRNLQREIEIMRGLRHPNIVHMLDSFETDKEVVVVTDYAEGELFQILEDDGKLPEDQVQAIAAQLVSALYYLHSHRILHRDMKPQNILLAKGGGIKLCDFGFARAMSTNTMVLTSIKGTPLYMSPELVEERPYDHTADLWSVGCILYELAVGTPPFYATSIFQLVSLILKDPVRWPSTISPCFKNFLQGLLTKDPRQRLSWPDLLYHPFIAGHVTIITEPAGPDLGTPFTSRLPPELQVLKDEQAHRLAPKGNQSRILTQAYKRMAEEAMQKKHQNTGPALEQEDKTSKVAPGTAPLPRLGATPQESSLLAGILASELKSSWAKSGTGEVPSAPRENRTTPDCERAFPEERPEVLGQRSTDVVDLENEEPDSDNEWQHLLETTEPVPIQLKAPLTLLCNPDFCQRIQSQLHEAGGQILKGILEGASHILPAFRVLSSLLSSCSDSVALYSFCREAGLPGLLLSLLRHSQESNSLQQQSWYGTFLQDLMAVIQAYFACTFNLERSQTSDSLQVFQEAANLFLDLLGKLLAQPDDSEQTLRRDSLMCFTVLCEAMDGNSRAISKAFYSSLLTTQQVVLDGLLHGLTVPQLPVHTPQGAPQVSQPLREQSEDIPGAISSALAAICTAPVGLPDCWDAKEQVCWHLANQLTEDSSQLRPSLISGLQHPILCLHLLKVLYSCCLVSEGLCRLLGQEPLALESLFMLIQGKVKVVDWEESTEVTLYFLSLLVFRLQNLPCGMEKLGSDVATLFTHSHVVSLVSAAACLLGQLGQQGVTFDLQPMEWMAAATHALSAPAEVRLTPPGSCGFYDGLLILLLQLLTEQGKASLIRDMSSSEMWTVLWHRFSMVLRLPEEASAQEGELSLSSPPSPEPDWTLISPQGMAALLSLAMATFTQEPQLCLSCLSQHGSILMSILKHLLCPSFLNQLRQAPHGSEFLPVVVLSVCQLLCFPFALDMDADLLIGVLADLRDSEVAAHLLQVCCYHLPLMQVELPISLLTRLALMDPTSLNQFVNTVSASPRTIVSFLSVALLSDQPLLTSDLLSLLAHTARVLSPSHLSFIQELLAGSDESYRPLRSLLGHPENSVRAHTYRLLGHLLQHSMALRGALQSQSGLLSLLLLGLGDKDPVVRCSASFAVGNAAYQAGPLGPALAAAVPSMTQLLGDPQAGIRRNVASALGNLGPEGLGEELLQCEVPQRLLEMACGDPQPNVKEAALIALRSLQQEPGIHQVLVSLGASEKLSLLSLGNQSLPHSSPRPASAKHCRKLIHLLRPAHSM
In assay [15] the target is Tyrosine-protein kinase JAK3 (Homo sapiens) (UniProt P52333). In words: Binding affinity to wild-type human partial length JAK3 JH1 catalytic domain (I781 to S1124 residues) expressed in mammalian expression system assessed as residual binding level at 10 uM by Kinomescan method relative to control.
In assay [16] the target is Aurora kinase A (Homo sapiens) (UniProt O14965). The experiment in a line: Binding affinity to wild-type human partial length AURKA (E122 to K401 residues) expressed in mammalian expression system assessed as residual binding level at 10 uM by Kinomescan method relative to control.
In assay [17] the target is Bone morphogenetic protein receptor type-1A (Homo sapiens) (UniProt P36894). In words: Binding affinity to wild-type human partial length BMPR1A (Q214 to I532 residues) expressed in bacterial expression system assessed as residual binding level at 10 uM by Kinomescan method relative to control.
Assay [18] deals with Tyrosine-protein kinase Fer (Homo sapiens) (UniProt P16591). In words: Binding affinity to wild-type human partial length FER (S542 to T822 residues) expressed in bacterial expression system assessed as residual binding level at 10 uM by Kinomescan method relative to control.
Assay [19] relates to Tyrosine-protein kinase ABL1 (Homo sapiens), P00519 [Q252H]. In words: Binding affinity to human non-phosphorylated ABL1 Q252H mutant (S229 to K512 residues) expressed in mammalian expression system assessed as residual binding level at 10 uM by Kinomescan method relative to control.
Assay [20] concerns the target SRSF protein kinase 2 (Homo sapiens) (UniProt P78362). The experiment in a line: Binding affinity to wild-type human full length SRPK2 (M1 to S686 residues) expressed in bacterial expression system assessed as residual binding level at 10 uM by Kinomescan method relative to control.
The subject of assay [21] is Mast/stem cell growth factor receptor Kit (Homo sapiens), P10721 [V559D,T670I]. The experiment in a line: Binding affinity to human partial length KIT V559D/T670I double mutant (Y545 to D952 residues) expressed in bacterial expression system assessed as residual binding level at 10 uM by Kinomescan method relative to control.
In assay [22] the target is Eukaryotic translation initiation factor 2-alpha kinase 1 (Homo sapiens) (UniProt Q9BQI3). In words: Binding affinity to wild-type human partial length EIF2AK1 (Q147 to E603 residues) expressed in mammalian expression system assessed as residual binding level at 10 uM by Kinomescan method relative to control.
Assay [23] concerns the target Serine/threonine-protein kinase PLK1 (Homo sapiens) (UniProt P53350). In words: Binding affinity to wild-type human partial length PLK1 (A33 to F325 residues) expressed in mammalian expression system assessed as residual binding level at 10 uM by Kinomescan method relative to control.
In assay [24] the test system is Tyrosine-protein kinase ABL1 (Homo sapiens), P00519 [H396P]. In words: Binding affinity to human non-phosphorylated ABL1 H396P mutant (S229 to K512 residues) expressed in mammalian expression system assessed as residual binding level at 10 uM by Kinomescan method relative to control.

Myotonin-protein kinase (Homo sapiens), sequence (Q09013 whole entry, the tested form may be a part, canonical isoform): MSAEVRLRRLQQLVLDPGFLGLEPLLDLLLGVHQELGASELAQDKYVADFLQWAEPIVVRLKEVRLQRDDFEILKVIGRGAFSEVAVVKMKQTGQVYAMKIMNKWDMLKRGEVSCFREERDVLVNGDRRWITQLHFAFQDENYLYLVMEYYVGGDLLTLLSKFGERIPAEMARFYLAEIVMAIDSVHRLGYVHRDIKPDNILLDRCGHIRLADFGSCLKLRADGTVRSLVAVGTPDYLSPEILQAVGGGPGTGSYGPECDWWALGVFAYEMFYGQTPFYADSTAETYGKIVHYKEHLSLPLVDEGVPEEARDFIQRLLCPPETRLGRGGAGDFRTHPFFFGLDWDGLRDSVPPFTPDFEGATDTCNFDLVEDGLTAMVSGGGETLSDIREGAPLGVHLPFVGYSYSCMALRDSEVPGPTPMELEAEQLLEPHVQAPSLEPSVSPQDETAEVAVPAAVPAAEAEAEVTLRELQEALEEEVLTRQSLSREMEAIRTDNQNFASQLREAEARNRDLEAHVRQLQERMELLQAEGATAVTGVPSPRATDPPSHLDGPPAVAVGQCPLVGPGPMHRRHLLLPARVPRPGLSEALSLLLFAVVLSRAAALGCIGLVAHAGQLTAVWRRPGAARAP
Mast/stem cell growth factor receptor Kit (Homo sapiens), P10721 [V559D,T670I], sequence (P10721 whole entry V559D/T670I, the tested form may be a part): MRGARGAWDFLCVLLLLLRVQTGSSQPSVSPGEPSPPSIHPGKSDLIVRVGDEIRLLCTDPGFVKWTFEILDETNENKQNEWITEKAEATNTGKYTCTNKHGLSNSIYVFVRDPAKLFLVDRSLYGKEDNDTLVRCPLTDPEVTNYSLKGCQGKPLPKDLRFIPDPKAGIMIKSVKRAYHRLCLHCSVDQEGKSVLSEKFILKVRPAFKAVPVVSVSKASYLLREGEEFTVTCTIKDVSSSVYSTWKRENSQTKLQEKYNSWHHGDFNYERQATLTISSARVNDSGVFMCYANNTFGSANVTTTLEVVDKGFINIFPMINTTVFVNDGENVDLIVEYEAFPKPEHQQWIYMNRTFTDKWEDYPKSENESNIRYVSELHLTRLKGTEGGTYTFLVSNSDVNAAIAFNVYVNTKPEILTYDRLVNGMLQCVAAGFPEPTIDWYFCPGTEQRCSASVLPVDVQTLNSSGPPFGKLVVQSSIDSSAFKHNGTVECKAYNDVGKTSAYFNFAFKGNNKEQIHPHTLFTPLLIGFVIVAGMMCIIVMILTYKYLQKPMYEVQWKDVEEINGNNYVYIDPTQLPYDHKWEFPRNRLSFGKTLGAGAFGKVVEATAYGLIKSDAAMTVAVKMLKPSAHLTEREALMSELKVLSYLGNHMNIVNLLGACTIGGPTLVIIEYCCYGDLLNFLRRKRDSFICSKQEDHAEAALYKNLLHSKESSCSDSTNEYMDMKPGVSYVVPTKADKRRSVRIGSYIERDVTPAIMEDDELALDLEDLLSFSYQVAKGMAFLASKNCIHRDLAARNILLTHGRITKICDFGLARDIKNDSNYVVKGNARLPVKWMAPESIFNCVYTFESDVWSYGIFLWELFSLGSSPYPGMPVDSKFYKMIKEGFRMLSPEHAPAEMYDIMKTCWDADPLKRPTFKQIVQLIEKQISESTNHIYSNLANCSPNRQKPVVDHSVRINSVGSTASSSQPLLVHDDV

For the compound `O=C(Nc1cc(-c2cn(CCNc3c4c(nc5ccccc35)CCCC4)nn2)ccn1)Nc1cccc2c1C1CCCCN1C2=O` (racemic), the Activity came out at 3.4% in [1]; 12% in assay [2]; 2.9% in [3]; 94% in assay [4]; 24% in [5]; 95% in [6]. Besides, the Activity in [7] was determined as 2.2%; in assay [8], 17%; in assay [9] it was 27%; in [10] it was 7.1%; in [11], 100%; in assay [12], 18%. The Activity in assay [13] was 86%; in assay [14] it was 9.1%; in assay [15], 0.28%; in assay [16], 9.5%; in [17] it was 92%; in [18], 100%. The Activity in assay [19] is 4.5%; in [20], 35%; in assay [21], 3.4%; in assay [22], 100%; in [23], 81%; in [24], 1.8%.
